# Patent US9115374B2, “SYN3 compositions and methods” (MERCK SHARP & DOHME CORP., priority 2001, dated 2015)
# Experiment: Stability of lyophilized formulations of SYN3, concentration by HPLC after reconstitution
# Type: physicochemical
# Conditions: in the dehydrated powder at 40° C.
# Description: Stability testing of the resultant lyophilized products of Examples 13, 14 and 15 yielded the following results:
# Stability testing was accomplished by HPLC. Lyophilized formulations were reconstituted (redissolved) with 19.5 ml WFI. Samples were placed in the indicated temperature conditions, incubated for specified times and concentrations were determined by HPLC and compared to initial concentrations.
smiles,measurement,value
"C[C@H](CCC(=O)NCCCN(CCCNC(=O)[C@H](O)[C@@H](O)[C@H](O[C@@H]1O[C@H](CO)[C@H](O)[C@H](O)[C@H]1O)[C@H](O)CO)C(=O)CC[C@@H](C)[C@H]1CC[C@H]2[C@@H]3[C@H](O)C[C@@H]4C[C@H](O)CC[C@]4(C)[C@H]3C[C@H](O)[C@]12C)[C@H]1CC[C@H]2[C@@H]3[C@H](O)C[C@@H]4C[C@H](O)CC[C@]4(C)[C@H]3C[C@H](O)[C@]12C [SYN3, (N —(3-cholamidopropyl)—N —(3-lactobionamidopropyl))-cholamide]",time SYN3 remains stable,at least 3 months
